Experimental data from US7928139B2 (Amgen Inc., priority 2006, dated 2011).

Biological target: HIF PHD2 (Homo sapiens, UniProt Q9GZT9)
Assay: PHD2 inhibition assay (TR-FRET, VCB-Eu detection of hydroxylated P564-HIF1α peptide)
Type: biochemical
Conditions: 2 nM PHD2, 100 nM P564-HIF1α peptide, 0.25 μM 2-oxoglutarate, 100 μM FeCl2, 2 mM ascorbic acid
Procedure: Inhibition of HIF PHD2 activity was quantified utilizing the TR-FRET technology. HIF PHD2 catalyzes a hydroxyl modification on the proline residue of the P564-HIF1α peptide substrate (Biotin-DLEMLAPYIPMDDDFQL (SEQ ID NO: 7)) resulting in recognition and binding of the europylated Von Hippel-Lindau protein (pVHL), elongin B and elongin C heterotrimeric (VCB-Eu) complex.
The PHD2 inhibition assay was executed by addition of freshly dissolved FeCl2 to 178.57 μM (100 μM final concentration) in PHD2 Reaction Buffer containing 30 mM MES, pH 6, 10 mM NaCl, 0.25% Brij-35, 0.01% BSA, and 1% DMSO. 28 μL of the iron solution and 2 μL of inhibitor compounds serially diluted in 100% DMSO (5% DMSO final) were added to black polypropylene 96-well microtiter plates. To that, 10 μL of 10 nM PHD2 (2 nM final) was added to all wells of the plate except for the 8 wells of column 12 (LO control), and allowed to incubate at room temperature on the shaker for one hour. Column 6 was the HI control containing PHD2 enzyme and 5% DMSO vehicle, but no inhibitor compound. To initiate the PHD2 enzymatic reaction, 10 μL of a solution containing 500 nM P564-HIF1α peptide (100 nM final), 10 mM ascorbic acid (2 mM final), and 1.25 μM 2-oxoglutarate (α-ketoglutarate; 0.25 μM final) in PHD2 Reaction Buffer was added to all wells of the plate and allowed to incubate on the shaker at room temperature for one hour.
The reaction was terminated by addition of 25 μL TR-FRET Buffer (50 mM TRIS-HCl, pH 9, 100 mM NaCl, 0.05% BSA, and 0.5% Tween-20) containing 150 mM succinate (product inhibitor; 50 mM final), 75 nM streptavidin-APC (25 nM final), and 7.5 nM VCB-Eu (2.5 nM final). The TR-FRET detection reagents were placed on a shaker for 1 hour to reach binding equilibrium before reading on the Discovery platform (PerkinElmer). Europium is excited at 315 nm and phosphoresces at 615 nm with a large Stoke's shift. APC, in turn, emits at 655 nm upon excitation at 615 nm. The TR-FRET signal is measured as the ratio of the APC 655 nm signal divided by the internal europium reference 615 nm emission signal.
The POC (percentage of control) was determined by comparing the signal from hydroxylated peptide substrate in the enzyme reaction containing inhibitor compound with that from PHD2 enzyme with DMSO vehicle alone (HI control), and no enzyme (LO control). POC was calculated using the formula: % control (POC)=(cpd−average LO)/(average HI−average LO)*100. Data (consisting of POC and inhibitor concentration in μM) was fitted to a 4-parameter equation (y=A+((B−A)/(1+((x/C)^D))), where A is the minimum y (POC) value, B is the maximum y (POC), C is the x (cpd concentration) at the point of inflection and D is the slope factor) using a Levenburg-Marquardt non-linear regression algorithm.

Sequence of HIF PHD2 (Q9GZT9 whole entry): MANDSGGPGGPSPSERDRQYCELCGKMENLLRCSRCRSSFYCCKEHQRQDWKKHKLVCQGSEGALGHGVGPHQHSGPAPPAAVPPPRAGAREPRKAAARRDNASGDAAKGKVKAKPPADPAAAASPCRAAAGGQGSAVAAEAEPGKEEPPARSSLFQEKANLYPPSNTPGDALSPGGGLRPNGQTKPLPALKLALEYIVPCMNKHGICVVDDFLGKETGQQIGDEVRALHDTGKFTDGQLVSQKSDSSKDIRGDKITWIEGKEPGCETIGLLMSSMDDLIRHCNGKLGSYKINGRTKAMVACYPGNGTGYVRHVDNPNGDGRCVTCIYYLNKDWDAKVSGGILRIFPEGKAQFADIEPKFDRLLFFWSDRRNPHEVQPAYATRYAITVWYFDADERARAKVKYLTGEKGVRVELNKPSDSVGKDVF

| IC50 | Compound |
| --- | --- |
| < 100 nM | O=C(O)CNC(=O)C1=C(O)c2ccccc2C2(CCN(Cc3ccccc3)CC2)C1=O [Example 69, N-((4-Hydroxy-2-oxo-2′,3′,5′,6′-tetrahydro-N-benzyl-spiro[naphthalene-1,4′-piperidine]-3-yl)carbonyl)glycine] |
| < 100 nM | CC1(C)C(=O)C(C(=O)NCC(=O)O)=C(O)c2ccc(C#N)cc21 [Example 41, N-((7-Cyano-4-hydroxy-1,1-dimethyl-2-oxo-naphthalen-3-yl)carbonyl)glycine] |
| 100 to 500 nM | CC1(c2ccc(Cl)cc2)C(=O)C(C(=O)NCC(=O)O)=C(O)c2cc(Cl)ccc21 (stereo not shown) [Example 34, N-((6-Chloro-1-(4-chlorophenyl)-4-hydroxy-1-methyl-2-oxo-naphthalen-3-yl)carbonyl)glycine] |
| < 100 nM | O=C(O)CNC(=O)C1=C(O)c2cc(Cl)ccc2C2(CCOC2)C1=O (stereo not shown) [Example 12, N-((6′-Chloro-4′-hydroxy-2′-oxo-4,5-dihydro-2′H-spiro[furan-3,1′-naphthalen]-3′-yl)carbonyl)glycine] |
| 100 to 500 nM | O=C(O)CNC(=O)C1=C(O)c2cc(Cl)ccc2C2(CCCC2)C1=O [Example 25, N-((6′-Chloro-4′-hydroxy-2′-oxo-spiro[cyclopentane-1,1′-naphthalen]-3′-yl)carbonyl)glycine] |
| < 100 nM | CC1(C)C(=O)C(C(=O)NCC(=O)O)=C(O)c2cc(F)c(F)cc21 [Example 59, N-((6,7-Difluoro-4-hydroxy-1,1-dimethyl-2-oxo-naphthalen-3-yl)carbonyl)glycine] |
| < 100 nM | O=C(O)CNC(=O)C1=C(O)c2ccc(F)cc2C2(CCOCC2)C1=O [Example 44, N-((7-Fluoro-4-hydroxy-2-oxo-2′,3′,5′,6′-tetrahydro-spiro[naphthalene-1,4′-pyran]-3-yl)carbonyl)glycine] |
| 100 to 500 nM | O=C(O)CNC(=O)C1=C(O)c2cc(Cl)ccc2[C@]2(CCCO2)C1=O [Example 74, N-(((2R)-6′-Chloro-4′-hydroxy-2′-oxo-4,5-dihydro-spiro[furan-2,1′-naphthalen]-3′-yl)carbonyl)glycine] |
| 100 to 500 nM | C[C@@]1(c2ccccc2)C(O)=C(C(=O)NCC(=O)O)C(=O)c2ccccc21 (single isomer, unassigned) [Example 114, N-(((4S)-3-Hydroxy-4-methyl-1-oxo-4-phenyl-1,4-dihydro-2-naphthalenyl)carbonyl)glycine or N-(((4R)-3-Hydroxy-4-methyl-1-oxo-4-phenyl-1,4-dihydro-2-naphthalenyl)carbonyl)glycine] |
| 100 to 500 nM | Cc1cc(-c2ccc3c(c2)C(O)=C(C(=O)NCC(=O)O)C(=O)C3(C)C)ccn1 [Example 7, N-((4-Hydroxy-1,1-dimethyl-6-(2-methyl-4-pyridinyl)-2-oxo-naphthalen-3-yl)carbonyl)glycine] |
| < 100 nM | CC1(C)C(=O)C(C(=O)NCC(=O)O)=C(O)c2cc(C(F)(F)F)ccc21 [Example 4, N-((4-Hydroxy-1,1-dimethyl-2-oxo-6-(trifluoromethyl)-naphthalen-3-yl)carbonyl)glycine] |
| < 100 nM | CC1(C)C(=O)C(C(=O)NCC(=O)O)=C(O)c2ccc(C#Cc3cccnc3)cc21 [Example 117, 2-(2-hydroxy-1,1-dimethyl-4-oxo-7-(2-(pyridin-3-yl)ethynyl)-1,4-dihydronaphthalene-3-carboxamido) acetic acid] |
| < 100 nM | CC1(C)C(=O)C(C(=O)NCC(=O)O)=C(O)c2cc(Cl)c(F)cc21 [Example 92, N-((6-Chloro-7-fluoro-4-hydroxy-1,1-dimethyl-2-oxo-naphthalen-3-yl)carbonyl)glycine] |
| < 100 nM | CC1(C)C(=O)C(C(=O)CCC(=O)O)=C(O)c2cc(Br)ccc21 [Example 104, 4-(7-Bromo-1-hydroxy-4,4-dimethyl-3-oxo-3,4-dihydronaphthalen-2-yl)-4-oxobutanoic acid] |
| < 100 nM | CC1(C)C(=O)C(C(=O)NCC(=O)O)=C(O)c2cc(F)ccc21 [Example 13, N-((6-Fluoro-4-hydroxy-1,1-dimethyl-2-oxo-naphthalene-3-yl)carbonyl)glycine] |
| 100 to 500 nM | CCC1(C)C(=O)C(C(=O)NCC(=O)O)=C(O)c2cc(Cl)ccc21 (stereo not shown) [Example 15, N-((6-Chloro-1-ethyl-4-hydroxy-1-methyl-2-oxo-naphthalen-3-yl)carbonyl)glycine] |

| IC50 | Compound |
| --- | --- |
| < 100 nM | CC1(C)C(=O)C(C(=O)NCC(=O)O)=C(O)c2ccccc21 [Example 63, N-((4-Hydroxy-1,1-dimethyl-2-oxo-naphthalen-3-yl)carbonyl)glycine] |
| > 10000 nM | CC1(C)C(=O)C(C(N)=O)=C(O)c2cc(Cl)ccc21 [Example 101, 6-Chloro-4-hydroxy-1,1-dimethyl-2-oxo-naphthalene-3-carboxamide] |
| 500 to 1000 nM | CC1(C)C(=O)C(C(=O)NCC(=O)O)=C(O)c2cc(-c3ccccc3)ccc21 [Example 68, N-((6-Phenyl-4-hydroxy-1,1-dimethyl-2-oxo-naphthalen-3-yl)carbonyl)glycine] |
| < 100 nM | CC1(C#N)C(=O)C(C(=O)NCC(=O)O)=C(O)c2ccc(F)cc21 (stereo not shown) [Example 130, 2-(1-cyano-7-fluoro-4-hydroxy-1-methyl-2-oxo-1,2-dihydronaphthalene-3-carboxamido) acetic acid] |
| < 100 nM | CC1(C#N)C(=O)C(C(=O)NCC(=O)O)=C(O)c2ccc(Cl)cc21 (single isomer, unassigned) [Example 141] |
| < 100 nM | O=C(O)CNC(=O)C1=C(O)c2cc(Cl)ccc2C2(CCC(=O)CC2)C1=O [Example 80, N-((6′-Chloro-4′-hydroxy-2′,4-dioxo-spiro[cyclohexane-1,1′-naphthalen]-3′-yl)carbonyl)glycine] |
| 100 to 500 nM | CC1(C)C(=O)C(C(=O)NCC(=O)O)=C(O)c2ccc(NCCN3CCOCC3)cc21 [Example 107, 2-(2-Hydroxy-1,1-dimethyl-7-(2-morpholinoethylamino)-4-oxo-1,4-dihydronaphthalene-3-carboxamido)acetic acid] |
| < 100 nM | O=C(O)CNC(=O)C1=C(O)c2cc(Cl)ccc2C2(CCC2)C1=O [Example 93, N-((6′-Chloro-4′-hydroxy-2′-oxo-spiro[cyclobutane-1,1′-naphthalen]-3′-yl)carbonyl)glycine] |
| 100 to 500 nM | C[C@H](NC(=O)C1=C(O)c2cc(Cl)ccc2C2(CCOCC2)C1=O)C(=O)O [Example 55, N-((6-Chloro-4-hydroxy-2-oxo-2′,3′,5′,6′-tetrahydro-spiro[naphthalene-1,4′-pyran]-3-yl)carbonyl)-L-alanine] |
| 1000 to 10000 nM | CC1(C#N)C(=O)C(C(=O)CCC(=O)O)=C(O)c2cc(Cl)ccc21 (stereo not shown) [Example 123, 4-(7-chloro-4-cyano-3-hydroxy-4-methyl-1-oxo-1,4-dihydro-2-naphthalenyl)-4-oxobutanoic acid] |
| < 100 nM | CC1(C)C(=O)C(C(=O)NCC(=O)O)=C(O)c2cc(Cl)ccc21 [Example 2, N-((6-Chloro-4-hydroxy-1,1-dimethyl-2-oxo-naphthalen-3-yl)carbonyl)glycine] |
| < 100 nM | CC1(C)C(=O)C(C(=O)NCC(=O)O)=C(O)c2ccncc21 [Example 105, 2-(5-Hydroxy-8,8-dimethyl-7-oxo-7,8-dihydroisoquinoline-6-carboxamido)acetic acid] |
| 100 to 500 nM | O=C(O)CNC(=O)C1=C(O)c2ccccc2C2(CCNCC2)C1=O [Example 70, N-((4-Hydroxy-2-oxo-2′,3′,5′,6′-tetrahydro-spiro[naphthalene-1,4′-piperidine]-3-yl)carbonyl)glycine] |
| < 100 nM | C[C@@]1(C#N)C(=O)C(C(=O)NCC(=O)O)=C(O)c2ccc(F)cc21 (single isomer, unassigned) [Example 137, (R)-2-(1-cyano-7-fluoro-4-hydroxy-1-methyl-2-oxo-1,2-dihydronaphthalene-3-carboxamido) acetic acid or (S)-2-(1-cyano-7-fluoro-4-hydroxy-1-methyl-2-oxo-1,2-dihydronaphthalene-3-carboxamido) acetic acid] |
| < 100 nM | CC1(C)C(=O)C(C(=O)NCC(=O)O)=C(O)c2ccc(Cl)cc21 [Example 48, N-((7-Chloro-4-hydroxy-1,1-dimethyl-2-oxo-naphthalen-3-yl)carbonyl)glycine] |
